According to US20070281991A1, “Preparation Of Phenol-Amide Compounds With Anti-Oxidizing Properties” (priority 2004, published 2007):

Assay: Inhibitory effect on free radical diphenylpicrylhydrazide, UV spectrophotometry at 517 nm
Settings: for Inhibition % / Absorbance at 517 nm: ethanolic solution, 20 micromoles by liter of compound, 100 micromeres by liter of radical (VIII), 30 minutes at 20° C.; for Absorbance at 517 nm: vat 1 cm, control only 1.15
Protocol: The anti-oxidizing potential in solution of the amide-phenol compounds (I) and (II) was evaluated by the degree of their reaction with radical free diphenyl-picrylhydrazide (VIII) following C. T. Ho, Journal of Agricultural and Food Chemistry, 1999, p.
The inhibitory effect of the free radicals claimed for the compounds (Ia) and (IIa) has been evaluated by the measure of their absorbencies in UV spectrophotometry at 517 nanometers in the presence of an excess of radical diphenylpicrylhydrazide (VIII).
Ethanolic solutions containing 20 micromoles by liter of compound to test and 100 micromeres by liter of radical (VIII) agitated for 30 minutes at 20° C. and placed in a vat 1 cm of length.

SMILES | Inhibition % [%] | Absorbance at 517 nm | inhibitory activity compared with TROLOX and methyl gallate (in words) (diphenylpicrylhydrazide radical test)
COC(=O)c1cc(O)c(O)c(O)c1 [Gallate of methyl (IIIa), methyl gallate] | 71 | 0.33 | –
CCCCCCCCCCC(CO)NC(=O)c1cc(O)c(O)c(O)c1 (stereo not shown) [Gallic amide (Ia)] | 70 | 0.35 | lower than TROLOX but comparable to that of methyl gallate
Cc1c(C)c2c(c(C)c1O)CCC(C)(C(=O)O)O2 (stereo not shown) [TROLOX (IVa), 6-hydroxy-2,5,7,8-tetramethyl chroman-2-carboxylic acid] | 91 | 0.10 | –
